Assay results reported in article PMC8777785, “Antimicrobial Activity of Snake β-Defensins and Derived Peptides” (Toxins, 2021).
≈ marks a conversion by molar mass, not a printed value. Residues, ends and D or L forms follow the SMILES beside them.

Assays:
[1] = test system: Trichophyton rubrum (IOC 4527); experiment: Resazurin microtiter assay plate, antifungal MIC90; type: cell-based; settings: resazurin colour change, RPMI 1640, 1 to 250 μM, 28 °C, 24–72 h; three independent experiments
Method: (§1) The derived peptides were also tested against fungi species using the classical resazurin microtiter assay plate method. It is based on the color change of the rezazurin dye that in blue indicates the absence of growth in at least 90%, and pink refers to microorganism growth. MIC is determined as the minimal concentration of the sample that can prevent the color change from blue to pink and refers to the inhibition of 90% of microorganisms.
(§2) The antifungal activity was evaluated by the microdilution assay as previously described on clinical strains of Candida albicans (IOC 4525), Cryptococcus neoformans (IOC 4528), Trichophyton rubrum (IOC 4527) and Aspergillus fumigatus (IOC 4526). The fungi were cultivated in potato dextrose agar at 28 °C according to the Clinical and Laboratory Standards Institute recommendations. Fungal suspensions were prepared in RPMI 1640 culture media; the CFU/mL was adjusted to 0.5–2.5 × 10^3 for yeasts (C. albicans and C. neoformans) and 0.4–5 × 10^4 CFU/mL for filamentous fungi (T. rubrum e A. fumigatus), by comparison with a standard curve previously stablished in our laboratory.
(§3) The peptides PS1, PS2, PS, PS3, PS4, PS5 and PS6 at 1 mM in acetic acid at 0.01% were diluted in RPMI 1640 culture media at concentrations ranging from 1 to 250 μM. Amphotericin B (AMB) at concentrations below 15 μg/mL (16 μM) and acetic acid from 0.0002 to 0.0025% was used as control.
(§4) The fungi suspensions were added to a 96 well plate (100 µL/well) and the samples (100 µL) in different concentrations were added to each well. The plate was incubated at 28 °C for 24–72 h, and 24 h before the end of the assay 25 µL of the rezazurin dye at 0.02% were added to each well. The minimal inhibitory concentration (MIC90) was defined as the lowest concentration that prevents the rezazurin’s change in color from blue to pink due to the inhibition of at least 90% of the microorganism’s growth. The assays were performed in three independent experiments.

[2] = test system: Candida albicans (IOC 4525); experiment: Resazurin microtiter assay plate, antifungal MIC90; type: cell-based; settings: resazurin colour change, RPMI 1640, 1 to 250 μM, 28 °C, 24–72 h; three independent experiments
Method: as §1, §2, §3, §4

[3] = test system: Aspergillus fumigatus (IOC 4526); experiment: Resazurin microtiter assay plate, antifungal MIC90; type: cell-based; settings: resazurin colour change, RPMI 1640, 1 to 250 μM, 28 °C, 24–72 h; three independent experiments
Method: as §1, §2, §3, §4

[4] = test system: Cryptococcus neoformans (IOC 4528); experiment: Resazurin microtiter assay plate, antifungal MIC90; type: cell-based; settings: resazurin colour change, RPMI 1640, 1 to 250 μM, 28 °C, 24–72 h; three independent experiments
Method: as §1, §2, §3, §4

Staphylococcus aureus = experiment: Microbroth dilution assay, MIC; type: cell-based; settings: short derived peptides, 2.75 to 700 µg/mL, overnight 37 °C, read at 600 nm, three independent experiments
Method: (§5) The β-defensins were tested using a microbroth dilution assay. It consists of incubating the bacteria (4.105 colony-forming unit—CFU/mL) and the peptide (from 1 to 512 µg/mL) in liquid broth. After the incubation at 37 °C during the night, the bacterial growth was detected by spectrophotometry at 600 nm. If the measure is similar to the broth, it […]. […] The β-defensins were tested against B. jararaca oral flora because it would be of biological and medical interest. In addition, we tested on E. coli ATCC 25922 and M. luteus that are common Gram-negative and Gram-positive bacteria used in antibacterial tests.
(§6) The antibacterial activity of the alkylated peptides was tested against Gram-negative (G−) bacteria (Klebsiella pneumonia, Serratia marcescens, Morganella morganii, Providencia rettgeri, Citrobacter freundii, Escherichia coli ATCC 25922 and Gram-positive (G+) bacteria (Micrococcus luteus A270 and Staphylococcus aureus) using microbroth assay. In a 96-well plate, 90 µL of 10% tryptone soy broth (TSB) with 4 × 10^5 colony-forming unit (CFU/mL) were mixed with serial twofold dilutions of β-defensins duplicate in concentrations from 512 to 1 µg/mL. The derived peptides coded as PS1, PS2, PS3, PS5, and PS6 (Table 1) were tested against these bacteria in serial twofold dilutions with concentrations bellow 700 µg/mL. After overnight incubation at 37 °C, the turbidity of the bacterial culture was read at 600 nm (Epoch microplate reader, Biotek). The minimal inhibitory concentration (MIC) of each peptide was determined as the lowest concentration that results in no visible bacterial growth. The MIC resulted from three independent experiments. The bacteria K. pneumonia, S. marcescens, M. morganii, P. rettgeri, C. freundii, M. luteus A270 and S. aureus were isolated from Bothrops jararaca buccal flora and kindly provided by Dr. Márcia R. Franzolin (Laboratory of Bacteriology—Instituto Butantan). M. luteus was kindly provided by Dr. Pedro I. da Silva Jr. (Laboratory of Applied Toxinology—Instituto Butantan).

[5] = test system: Escherichia coli ATCC 25922; experiment: Microbroth dilution assay, MIC; type: cell-based; settings: short derived peptides, 2.75 to 700 µg/mL, overnight 37 °C, read at 600 nm, three independent experiments
Method: as §5, §6

Citrobacter freundii = experiment: Microbroth dilution assay, MIC; type: cell-based; settings: short derived peptides, 2.75 to 700 µg/mL, overnight 37 °C, read at 600 nm, three independent experiments
Method: as §5, §6

Micrococcus luteus A270 = experiment: Microbroth dilution assay, MIC; type: cell-based; settings: short derived peptides, 2.75 to 700 µg/mL, overnight 37 °C, read at 600 nm, three independent experiments
Method: as §5, §6

Klebsiella pneumonia = experiment: Microbroth dilution assay, MIC; type: cell-based, Klebsiella pneumoniae; settings: short derived peptides, 2.75 to 700 µg/mL, overnight 37 °C, read at 600 nm, three independent experiments
Method: as §5, §6

Compound | MIC90, Trichophyton rubrum [1] [µM] | MIC90, Candida albicans [2] [µM] | MIC90, Aspergillus fumigatus [3] [µM] | MIC90, Cryptococcus neoformans [4] [µM] | MIC, S. aureus (Staphylococcus aureus) [µM] | MIC, E. coli [5] [µM] | MIC, C. freundii (Citrobacter freundii) [µM] | MIC, M. luteus (Micrococcus luteus A270) [µM] | MIC, K. pneumoniae (Klebsiella pneumonia) [µM]
N=C(N)NCCC[C@H](NC(=O)[C@H](Cc1c[nH]c2ccccc12)NC(=O)[C@H](CCCNC(=N)N)NC(=O)[C@@H](N)CO)C(=O)N[C@@H](Cc1c[nH]c2ccccc12)C(=O)N[C@@H](CCCCN)C(=O)N[C@@H](CO)C(=O)N[C@@H](CO)C(=O)N[C@@H](CCCCN)C(=O)N[C@@H](CCCCN)C(=O)NCC(=O)N[C@@H](CO)C(=O)NCC(=O)O [PS1] (H-SRWRWKSSKKGSG-OH) | >250 | >250 | >250 | >250 | 56.5 (≈ 87.6 µg/mL) | 56.5 (≈ 87.6 µg/mL) | 113 (≈ 175 µg/mL) | 28.4 (≈ 44 µg/mL) | >452
N=C(N)NCCC[C@H](NC(=O)CNC(=O)[C@@H]1CCCN1C(=O)CNC(=O)[C@@H](N)CO)C(=O)N[C@@H](CCCNC(=N)N)C(=O)N[C@@H](CO)C(=O)N[C@@H](CO)C(=O)N[C@@H](CCCNC(=N)N)C(=O)N[C@@H](CCCNC(=N)N)C(=O)N[C@@H](CCCNC(=N)N)C(=O)N[C@@H](CCCCN)C(=O)O [PS3] (H-SGPGRRSSRRRK-OH) | >250 | >250 | >250 | >250 | 125 (≈ 175 µg/mL) | >500 | >500 | 31.5 (≈ 44.1 µg/mL) | >500
